Key:
spring barley (HORVS) = assay: Greenhouse postemergence phytotoxicity on crop, visual injury after 20-22 d; format: in vivo, Hordeum vulgare
From the text: (§1) Seeds of the desired test plant species were planted in a 90:10% v/v (volume/volume) mixture of PRO-MIX® BX (Premier Tech Horticulture, Quakertown, Pa., USA) and PROFILE® GREENS GRADE™ (Profile Products LLC, Buffalo Grove, Ill., USA) planting mixture, which typically has a pH of 5.2 to 6.2 and an organic matter content of at least 50 percent, in plastic pots with a surface area of 103.2 square centimeters (cm^2). In some aspects, to ensure good germination and healthy plants, a fungicide treatment and/or other chemical or physical treatment was applied. The plants were grown for 7-36 days (d) in a greenhouse with an approximate 14-hour (h) photoperiod which was maintained at about 23° C. during the day and 22° C. during the night. Nutrients and water were added on a regular basis and supplemental lighting was provided with overhead metal halide 1000-Watt lamps as necessary. The plants were employed for testing when they reached the second or third true leaf stage.
(§2) Emulsifiable concentrates of each of each pyridine carboxylate herbicide (Compound A or Compound B) were prepared at 100 grams acid equivalent per liter (g ae/L). The emulsifiable concentrates also included a safener, cloquintocet-mexyl, at 120 grams active ingredient per liter (g ai/L). An aliquot of each emulsifiable concentrate was placed in a 25 mL glass vial and diluted with an aqueous mixture of 1.25% (v/v) ACTIROB® B esterified rapeseed oil (Bayer Crop Science, Research Triangle Park, N.C., USA) or MSO® Concentrate with LECI-TECH® methylated soybean oil (Loveland Products, Loveland, Colo., USA) to obtain concentrated stock solutions at the highest application rate for each herbicide, based upon a 12 milliliter (mL) application volume at a rate of 187 liters per hectare (L/ha). The concentrated stock solutions were further diluted with an aqueous mixture of 1.25% v/v ACTIROB® B or MSO® Concentrate with LECI-TECH® to obtain stock solutions at reduced application rates for each herbicide. Spray solutions of the herbicide combinations (Compound A or Compound B plus PDS inhibitor herbicide) were prepared by adding weighed amounts or aliquots of the PDS inhibitor herbicide to the stock solutions of Compound A or Compound B to form 12-mL spray solutions in two- or three-way combinations.
(§3) The spray solutions were applied to the plant material with an overhead Mandel track sprayer equipped with 8002E nozzles calibrated to deliver 187 L/ha over an application area of 0.503 square meters (m^2) at a spray height of 18 inches ([…] centimeters (cm)) above the average plant canopy. Control plants were sprayed in the same manner with the solvent blank. All pyridine carboxylate herbicide (component a) application rates are given as “g ae/ha” and all PDS inhibitor herbicide (component b) application rates are given as “g ai/ha.”
(§4) The treated plants and control plants were placed in a greenhouse as described above and watered by sub-irrigation to prevent wash-off of the test compounds. After 20-22 d, the condition of the test plants as compared with that of the control plants was determined visually and scored on a scale of 0 to 100 percent where 0 corresponds to no injury and 100 corresponds to complete kill.

[1] = test system: wild chamomile (MATCH, Matricaria chamomilla); assay: Greenhouse postemergence herbicidal effect, visual injury after 20-22 d; format: in vivo
From the text: as §1, §2, §3, §4

[2] = test system: wild buckwheat (POLCO, Polygonum convolvulus); assay: as above; format: in vivo
From the text: as §1, §2, §3, §4

[3] = test system: Russian thistle (SASKR, Salsola kali); assay: as above; format: in vivo
From the text: as §1, §2, §3, §4

[4] = test system: wild mustard (SINAR, Sinapis arvensis); assay: as above; format: in vivo
From the text: as §1, §2, §3, §4

[5] = test system: kochia (KCHSC, Kochia scoparia); assay: as above; format: in vivo
From the text: as §1, §2, §3, §4

[6] = test system: common lambsquarters (CHEAL, Chenopodium album L.); assay: as above; format: in vivo
From the text: as §1, §2, §3, §4

[7] = test system: spring rape (BRSNN, Brassica napus); assay: as above; format: in vivo
From the text: as §1, §2, §3, §4

spring wheat (TRZAS) = assay: Greenhouse postemergence phytotoxicity on crop, visual injury after 20-22 d; format: in vivo, Triticum aestivum
From the text: as §1, §2, §3, §4

[8] = test system: pigweed (AMARE, Amaranthus retroflexus); assay: Greenhouse postemergence herbicidal effect, visual injury after 20-22 d; format: in vivo
From the text: as §1, §2, §3, §4

[9] = test system: Canada thistle (CIRAR, Cirsium arvense); assay: as above; format: in vivo
From the text: as §1, §2, §3, §4

[10] = test system: winter rape (BRSNW, Brassica napus); assay: as above; format: in vivo; conditions: 60 g/ha, Table 1
From the text: as §1, §2, §3, §4

[11] = test system: soybean (GLXMA=Glycine max); assay: as above; format: in vivo; conditions: 12.5 g/ha, Table 4
From the text: as §1, §2, §3, §4

[12] = test system: broad-leaf dock (RUMOB, Rumex obtusifolius); assay: as above; format: in vivo; conditions: 12.5 g/ha, Table 4
From the text: as §1, §2, §3, §4

[13] = test system: ivyleaf morningglory (IPOHE, Ipomoea hederacea); assay: as above; format: in vivo; conditions: 12.5 g/ha, Table 4
From the text: as §1, §2, §3, §4

[14] = test system: giant foxtail (SETFA, Setaria faberi); assay: as above; format: in vivo; conditions: 12.5 g/ha, Table 4
From the text: as §1, §2, §3, §4

[15] = test system: large crabgrass (DIGSA, Digitaria sanguinalis); assay: as above; format: in vivo; conditions: 12.5 g/ha, Table 4
From the text: as §1, §2, §3, §4

[16] = test system: velvetleaf (ABUTH, Abutilon theophrasti); assay: as above; format: in vivo; conditions: 12.5 g/ha, Table 4
From the text: as §1, §2, §3, §4

[17] = test system: barnyardgrass (ECHCG, Echinochloa crus-galli); assay: as above; format: in vivo; conditions: 12.5 g/ha, Table 4
From the text: as §1, §2, §3, §4

[18] = test system: wild pansy (VIOTR, Viola tricolor); assay: as above; format: in vivo; conditions: 12.5 g/ha, Table 4
From the text: as §1, §2, §3, §4

[19] = test system: common rice (ORYSA, Oryza sativa); assay: as above; format: in vivo; conditions: 12.5 g/ha, Table 4
From the text: as §1, §2, §3, §4

[20] = test system: Italian ryegrass (LOLMU, Lolium multiflorum.); assay: as above; format: in vivo; conditions: 12.5 g/ha, Table 4
From the text: as §1, §2, §3, §4

CCC(Oc1ccc(F)c(C(F)(F)F)c1)C(=O)NCc1ccccc1 (stereo not shown) [Beflubutamid, 2-[4-fluoro-3-(trifluoromethyl)phenoxy]-N-(phenylmethyl)butanamide, reference compound]
visual injury Obs (spring barley (HORVS); 42.5 g/ha, Table 2): 18% | visual injury Obs ([1]; 42.5 g/ha, Table 2): 0% | visual injury Obs ([2]; 42.5 g/ha, Table 2): 0% | visual injury Obs ([3]; 42.5 g/ha, Table 2): 0% | visual injury Obs ([4]; 42.5 g/ha, Table 2): 5% | visual injury Obs ([5]; 42.5 g/ha, Table 2): 0% | visual injury Obs ([6]; 42.5 g/ha, Table 2): 0% | visual injury Obs ([7]; 42.5 g/ha, Table 2): 25% | visual injury Obs (spring wheat (TRZAS); 42.5 g/ha, Table 2): 0%

O=C(Nc1ccc(F)cc1F)c1cccnc1Oc1cccc(C(F)(F)F)c1 [Diflufenican, N-(2,4-difluorophenyl)-2-[3-(trifluoromethyl)phenoxy]-3-pyridinecarboxamide, reference compound]
visual injury (spring barley (HORVS); 60 g/ha, Table 1): 13% | visual injury ([8]; 60 g/ha, Table 1): 20% | visual injury ([9]; 60 g/ha, Table 1): 5% | visual injury ([1]; 60 g/ha, Table 1): 0% | visual injury ([2]; 60 g/ha, Table 1): 10% | visual injury ([3]; 60 g/ha, Table 1): 18% | visual injury ([4]; 60 g/ha, Table 1): 23% | visual injury ([5]; 60 g/ha, Table 1): 13% | visual injury ([6]; 60 g/ha, Table 1): 13% | visual injury [10]: 18% | visual injury (spring wheat (TRZAS); 60 g/ha, Table 1): 0%

Cn1cc(-c2ccccc2)c(=O)c(-c2cccc(C(F)(F)F)c2)c1 [Fluridone, 1-methyl-3-phenyl-5-[3-(trifluoromethyl)-phenyl]-4(1H)-pyridinone, reference compound]
visual injury Obs (spring barley (HORVS); 280 g/ha, Table 3): 0% | visual injury Obs ([8]; 280 g/ha, Table 3): 23% | visual injury Obs ([9]; 280 g/ha, Table 3): 18% | visual injury Obs ([1]; 280 g/ha, Table 3): 5% | visual injury Obs ([2]; 280 g/ha, Table 3): 13% | visual injury Obs ([3]; 280 g/ha, Table 3): 0% | visual injury Obs ([4]; 280 g/ha, Table 3): 45% | visual injury Obs ([6]; 280 g/ha, Table 3): 13% | visual injury Obs ([7]; 280 g/ha, Table 3): 18% | visual injury Obs (spring wheat (TRZAS); 280 g/ha, Table 3): 0%

O=C(Nc1ccc(F)cc1)c1cccc(Oc2cccc(C(F)(F)F)c2)n1 [Picolinafen, N-(4-fluorophenyl)-6-[3-(trifluoromethyl)phenoxy]-2-pyridinecarboxamide, reference compound]
visual injury Obs [11]: 20% | visual injury Obs [12]: 0% | visual injury Obs [13]: 5% | visual injury Obs [14]: 0% | visual injury Obs [15]: 50% | visual injury Obs [16]: 15% | visual injury Obs ([9]; 12.5 g/ha, Table 4): 5% | visual injury Obs [17]: 0% | visual injury Obs [18]: 0% | visual injury Obs [19]: 5% | visual injury Obs ([6]; 12.5 g/ha, Table 4): 20% | visual injury Obs [20]: 0% | visual injury Obs ([7]; 12.5 g/ha, Table 4): 28%
